# Reference: patent publication US11413239B2, “Pharmaceutical composition of tapentadol for nasal administration” (Torrent Pharmaceuticals Ltd., priority 2011, dated 2022)
# What was measured:
# [1] = Crystal formation in concentrated tapentadol solution on storage; assay type: physicochemical; details: increased concentration of tapentadol in solution, stored for more than 3 days
# Description: This makes the formulation non-homogeneous and therefore non-suitable for nasal administration. This crystal growth may further leads to altered therapeutic effect of the drug. Present invention overcomes this problem by providing a composition, wherein no such crystal growth is observed in the composition comprising high concentration of drug, when stored for longer duration.
# [2] = cited from earlier work
structure (smiles),measurement,setting,value
"CC[C@@H](c1cccc(O)c1)[C@@H](C)CN(C)C.Cl [Tapentadol, 3-[(1R,2R)-3-(dimethylamino)-1-ethyl-2-methylpropyl]phenol]",crystal formation on storage,[1],formation of crystals
same,clearance,"[2]; Eur. J. Drug Met and Pharmacokinetics 2007, 32, 163-169",1468.+−.122 mL/min
same,time of maximum serum concentration,[2]; after oral dosing,around 1.25 hours
same,parent compound metabolized,[2]; given orally,About 97%
same,time to absorb after administration,[2]; oral formulations,at least 45 minutes
